Patent US7563781B2, “Triazolopyrimidine derivatives” (Janssen Pharmaceutica NV, priority 2006, dated 2009)

How the values were obtained:
[1] = biological target: T1, Focal Adhesion Kinase (full-length Flag-tagged human FAK) (Homo sapiens, UniProt Q05397); experiment: in vitro FAK ELISA kinase assay; format: biochemical; conditions: compound 10 uM; ATP 2 uM; read-out: FAK % Inhib ave: 10 uM
T1 construct: a purified recombinant full-length Flag-tagged human FAK protein; Flag; made in house; host or cells: baculovirus infected insect cells
Experimental: Compound effects on the tyrosine kinase activity of Focal Adhesion Kinase were assessed with an in vitro FAK ELISA kinase assay. This assay measures the incorporation of phosphate from ATP into a FAK substrate protein using an antibody specific for phospho-tyrosine.
500 ng of FAKsubstrate, a purified recombinant fusion protein of GST and a 73 amino acid region surrounding the Tyr397 human FAK autophosphorylation site, was coated in a high-protein binding polystyrene 96 well plate overnight in a buffer containing 50 mM Hepes, pH 7.5, 150 mM NaCl, 0.1 mM Na-oVO4, 0.1 mM NaF and 1 protease inhibitor tablet/10 mL (Complete Mini-EDTA-free, Roche). The next day this solution was removed and the wells were incubated with 0.2% BSA in 50 mM Hepes, pH 7.5, 150 mM NaCl, 0.2 mM PMSF for 1 hour at 30° C. to block unoccupied protein binding sites. The wells were then washed with 50 mM Hepes, pH 7.5, 150 mM NaCl, 0.1% Tween 20. The kinase reaction was performed with 25 ng/well of FAK enzyme (a purified recombinant full-length Flag-tagged human FAK protein made in baculovirus infected insect cells) in 0.1 mL of a buffer containing 25 mM Hepes, pH 7.5, 5 mM MgCl2, 0.5 mM MnCl2, 10 uM NaoVO4, 0.2 mM PMSF. Compounds were added from 30% DMSO stock solutions for a screening concentration of 10 uM or IC50 determinations from 50 uM in half-log dilutions. The reaction is initiated with addition of ATP to a final concentration of 2 uM and incubated at 30° C. for 1 hour. Following the kinase reaction step, the wells were washed and incubated with 50 ng of Horseradish Peroxidase conjugated anti-phosphotyrosine antibody (PT-66 HRP, Sigma) in 0.1 mL wash buffer for 1 hour at 30° C. Wells were then washed and 0.1 mL HRP substrate, Tetra-methyl Benzidine (Sigma) was added and the color reaction allowed to proceed for 2-3 minutes followed by the addition of 0.1 mL of 1N H2SO4 to stop the HRP reaction. Percent inhibition of FAK kinase activity was calculated by comparing compound containing wells to wells treated with diluent only. Background was subtracted from all wells and was defined as the activity of FAK using 500 ng/well of BSA as a substrate. IC50 values were obtained using Prism data analysis software.

[2] = biological target: T2, CAK complex (human Cdk7, human Cyclin H, MAT-1) (Homo sapiens, UniProt P50613); experiment: in vitro time-resolved-fluorescence assay for the CAK kinase activity; format: biochemical; conditions: compound 20 uM; read-out: CAK % inhib; 20 uM
T2 construct: made in house; host or cells: SF-900 insect cells co-infected with Flag-Cdk7 and Bab-Cyclin H baculoviruses
Text: Cyclin Dependent Kinase Activating Kinase (CAK) is a complex of proteins that phosphorylates a well-conserved threonine (Thr) residue in all mammalian cyclin dependent kinases (cdks). The CAK complex can also phosphorylate several components of the transcriptional machinery, such as the C-terminal domain (CTD) of RNA polymerase II in the TFIIH transcription complex. The CAK complex localizes to the nucleus, and is composed of three proteins: Cdk7, Cyclin H, and MAT-1. The exemplified method teaches the cloning and expression CAK subunits, particularly a human Cdk7 and a human Cyclin H. The method of the present invention exemplified herein is equally applicable to the cloning and expression of any CAK subunit, such as variants, structural or functional polymorphisms of the human Cdk7 or the human Cyclin H, or their orthologs in other animals such as rat, mouse, pig, dog and monkey.
The CAK complex was purified from co-infected SF-900 insect cells at 48 hours post infection by batch immunoaffinity purification. The infected cells were pelleted by centrifugation and lysed in 1/10 of the culture volume in a solution containing 50 mM Hepes pH 7.5, 10 mM MgCl2, 1 mM DTT, 10 mM Beta-Glycerol phosphate, 20 uM Na-oVO4, 0.2 mM PMSF and 1 μg/mL each of leupeptin, aprotinin, and pepstatin on ice. Cells were mechanically lysed by trituration through a 22-gauge needle followed by sonication or alternately by nitrogen cavitation. The lysed cells were centrifuged at 50,000×G for 1 hour at 4° C. to remove debris and the supernatant was applied to 1/10 volume of prewashed Flag-M2 immunoaffinity resin (Sigma). The CAK complex, by nature of the Flag tagged Cdk7 protein, was allowed to bind to the Flag antibody of the resin overnight at 4° C. with gentle rocking. The resin was washed 4 times with 5 resin volumes of lysis buffer and the bound proteins were eluted by competition with 0.5 mg/mL Flag peptide ([…], American Peptide Co, Inc., SEQ ID NO: 16) in a total of 2 resin volumes. To remove the Flag peptide, the eluted material was applied to PD-10 gel filtration columns (Pharmacia) under conditions recommended by the manufacturer.
Measurement of CAK kinase activity was accomplished using an antibody methodology in which a Europium labeled antibody binds preferentially to serine phosphorylated GST-CTD substrate. The long-lived europium label fluorescence allows a greater signal-to-noise ratio due to the delay in reading the emission wavelength, thereby eliminating signals from immediate fluorescence and fluorescent pharmaceutical screening compounds.
The time-resolved-fluorescence assay for the CAK kinase activity is performed as follows. In a well of a black glutathione coated 96 well micro titer plate (Pierce Chemical, No. 15360), the following reagents were added: 1) 25 ul substrate solution containing 500 ng purified GST-CTD in a buffer having 50 mM Hepes pH 7.5, 10 mM MgCl2, 1 mM DTT, 0.2 mM PMSF, 40 uM Na-oVO4, and 22 uM ATP (as a background control, the buffer, including ATP but not substrate was added); 2) 2.5 ul of screening compounds in a diluent containing 30% DMSO/25 mM Hepes pH7.5 (As a control, the diluent only was added. Typically the final concentration of compound is 1 uM); and 3) 250 ng CAK enzyme complex in enzyme buffer containing 25 ul of 50 mM Hepes pH 7.5, 10 mM MgCl2, 1 mM DTT, 0.2 mM PMSF, and 40 uM Na-oVO4. The micro titer plate was shaken for 2 minutes on a titer plate shaker and allowed to incubate at 30° C. for 20 minutes.
Subsequently, Kinase Stop Solution (75 mM EDTA, 0.2 mM PMSF, 1 mM DTT, 120 uM Na oVO4 in PBS) was added (50 ul/well). The plate was shaken for 2 minutes and incubated overnight at room temperature to allow substrate binding to the wells. The plate contents were flicked out, and the wells of the plate were washed 4 times with 350 ul of wash buffer (Delphia wash buffer, Perkin-Elmer, Inc.). The plate was tapped dry. […]

T1 sequence (Q05397 whole entry): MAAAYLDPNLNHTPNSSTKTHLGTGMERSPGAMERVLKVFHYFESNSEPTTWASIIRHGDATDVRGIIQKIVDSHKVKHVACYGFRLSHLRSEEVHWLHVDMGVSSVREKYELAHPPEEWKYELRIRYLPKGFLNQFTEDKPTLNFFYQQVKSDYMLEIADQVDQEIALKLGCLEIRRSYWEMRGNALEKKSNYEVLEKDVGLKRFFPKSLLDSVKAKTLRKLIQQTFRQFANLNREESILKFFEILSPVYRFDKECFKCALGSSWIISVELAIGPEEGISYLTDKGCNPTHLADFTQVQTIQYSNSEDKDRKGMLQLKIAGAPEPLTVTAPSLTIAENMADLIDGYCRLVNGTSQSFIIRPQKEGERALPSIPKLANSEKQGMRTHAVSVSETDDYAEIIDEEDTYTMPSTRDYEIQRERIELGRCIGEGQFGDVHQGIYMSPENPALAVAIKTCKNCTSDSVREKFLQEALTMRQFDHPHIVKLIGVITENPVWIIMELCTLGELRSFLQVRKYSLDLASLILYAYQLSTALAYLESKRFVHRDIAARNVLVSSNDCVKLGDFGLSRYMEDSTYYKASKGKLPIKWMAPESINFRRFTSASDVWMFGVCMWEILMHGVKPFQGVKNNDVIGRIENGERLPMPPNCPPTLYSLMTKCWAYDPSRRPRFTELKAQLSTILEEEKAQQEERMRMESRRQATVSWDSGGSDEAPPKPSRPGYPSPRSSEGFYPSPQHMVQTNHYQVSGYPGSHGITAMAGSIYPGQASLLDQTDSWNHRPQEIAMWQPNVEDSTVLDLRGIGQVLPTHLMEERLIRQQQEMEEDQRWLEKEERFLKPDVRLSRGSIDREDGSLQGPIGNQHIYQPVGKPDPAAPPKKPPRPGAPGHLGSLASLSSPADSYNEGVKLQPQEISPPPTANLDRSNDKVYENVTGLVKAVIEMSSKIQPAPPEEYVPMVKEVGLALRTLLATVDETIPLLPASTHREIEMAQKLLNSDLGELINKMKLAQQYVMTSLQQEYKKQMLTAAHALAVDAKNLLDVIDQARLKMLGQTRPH
T2 sequence (P50613 with tags, fused parts or gaps): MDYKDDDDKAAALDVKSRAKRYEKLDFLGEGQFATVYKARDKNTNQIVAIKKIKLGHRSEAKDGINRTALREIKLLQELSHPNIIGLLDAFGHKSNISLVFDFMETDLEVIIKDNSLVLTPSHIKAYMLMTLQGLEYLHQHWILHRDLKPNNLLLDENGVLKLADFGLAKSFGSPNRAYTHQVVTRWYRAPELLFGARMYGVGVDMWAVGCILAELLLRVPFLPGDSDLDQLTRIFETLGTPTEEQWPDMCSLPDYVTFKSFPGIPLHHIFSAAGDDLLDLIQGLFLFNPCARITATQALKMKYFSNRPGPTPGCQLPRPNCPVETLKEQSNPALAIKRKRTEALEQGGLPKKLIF
T2 sequence (as listed by the source partner): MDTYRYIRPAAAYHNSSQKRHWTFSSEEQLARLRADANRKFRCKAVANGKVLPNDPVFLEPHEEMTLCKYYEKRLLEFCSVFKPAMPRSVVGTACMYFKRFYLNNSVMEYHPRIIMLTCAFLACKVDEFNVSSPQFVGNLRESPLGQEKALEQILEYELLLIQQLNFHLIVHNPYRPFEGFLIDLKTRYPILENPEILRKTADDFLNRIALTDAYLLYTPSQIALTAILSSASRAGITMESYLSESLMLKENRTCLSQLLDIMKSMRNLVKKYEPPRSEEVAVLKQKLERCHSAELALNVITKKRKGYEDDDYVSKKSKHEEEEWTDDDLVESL

SMILES | inhibition at 10 µM [1] | inhibition at 20 µM [2]
CCOC(=O)N1CCC(n2nnc3cnc(Nc4ccc(C(=O)NCCN(CC)CC)cc4)nc32)CC1 [Compound 64, 4-{5-[4-(2-Diethylamino-ethylcarbamoyl)-phenylamino]-[1,2,3]triazolo[4,5-d]pyrimidin-3-yl}-piperidine-1-carboxylic acid ethyl ester] | 29.1% | 33.9%
c1ccc(-c2cccc(Nc3ncc4nnn(-c5ccc(-c6csnn6)cc5)c4n3)c2)cc1 [Compound 38, Biphenyl-3-yl-[3-(4-[1,2,3]thiadiazol-4-yl-phenyl)-3H-[1,2,3]triazolo[4,5-d]pyrimidin-5-yl]-amine] | 3.4% | 27.2%
CN(C)CC(O)COc1ccc(Nc2ncc3nnn(-c4ccc5c(c4)CCC5)c3n2)cc1 (stereo not drawn) [Compound 1, 1-Dimethylamino-3-[4-(3-indan-5-yl-3H-[1,2,3]triazolo[4,5-d]pyrimidin-5-ylamino)-phenoxy]-propan-2-ol] | 93.6% | 102%
CCN(CC)CCNC(=O)c1ccc(Nc2ncc3nnn([C@@H](CO)[C@@H](O)c4ccccc4)c3n2)cc1 [Compound 70, N-(2-Diethylamino-ethyl)-4-[3-(2-hydroxy-1-hydroxymethyl-2-phenyl-ethyl)-3H-[1,2,3]triazolo[4,5-d]pyrimidin-5-ylamino]-benzamide] | 15% | 21%
CCCCNS(=O)(=O)c1ccc(OC)c(-n2nnc3cnc(Nc4ccc(C(=O)NCCN(CC)CC)cc4)nc32)c1 [Compound 86, 4-[3-(5-Butylsulfamoyl-2-methoxy-phenyl)-3H-[1,2,3]triazolo[4,5-d]pyrimidin-5-ylamino]-N-(2-diethylamino-ethyl)-benzamide] | 65.1% | 110%
CCCCNS(=O)(=O)c1cccc(Nc2ncc3nnn(Cc4ccccc4)c3n2)c1 [Compound 57] | 22% | 34.1%
CCN(CC)CCNC(=O)c1ccc(Nc2ncc3nnn(-c4cccc(-c5cnco5)c4)c3n2)cc1 [Compound 84, N-(2-Diethylamino-ethyl)-4-[3-(3-oxazol-5-yl-phenyl)-3H-[1,2,3]triazolo[4,5-d]pyrimidin-5-ylamino]-benzamide] | 46.6% | -58.9%
CN(CCCOc1ccc(Nc2ncc3nnn(-c4ccc5c(c4)CCC5)c3n2)cc1)Cc1ccccc1 [Compound 90, {4-[3-(Benzyl-methyl-amino)-propoxy]-phenyl}-(3-indan-5-yl-3H-[1,2,3]triazolo[4,5-d]pyrimidin-5-yl)-amine] | 31.7% | 47.5%
CN(C)CC(O)COc1ccc(Nc2ncc3nnn(-c4ccc5ccccc5c4)c3n2)cc1 (stereo not drawn) [Compound 12, 1-Dimethylamino-3-[4-(3-naphthalen-2-yl-3H-[1,2,3]triazolo[4,5-d]pyrimidin-5-ylamino)-phenoxy]-propan-2-ol] | 82.9% | 92.4%
c1cc(Nc2ncc3nnn(C4CCc5ccccc54)c3n2)cc(-c2nnn[nH]2)c1 (stereo not drawn) [Compound 60, (3-Indan-1-yl-3H-[1,2,3]triazolo[4,5-d]pyrimidin-5-yl)-[3-(1H-tetrazol-5-yl)-phenyl]-amine] | 26.8% | -0.99%
c1cc(-c2csnn2)ccc1Nc1ncc2nnn(-c3ccc4c(c3)CCC4)c2n1 [Compound 29, (3-Indan-5-yl-3H-[1,2,3]triazolo[4,5-d]pyrimidin-5-yl)-(4-[1,2,3]thiadiazol-4-yl-phenyl)-amine] | 11% | 16.3%
NS(=O)(=O)c1ccccc1Nc1ncc2nnn(-c3ccccc3S(N)(=O)=O)c2n1 [Compound 46] | 29.2% | 44.9%
CNC(=O)c1cccc(-n2nnc3cnc(Nc4cccc(-c5ccccc5)c4)nc32)c1 [Compound 41, 3-[5-(Biphenyl-3-ylamino)-[1,2,3]triazolo[4,5-d]pyrimidin-3-yl]-N-methyl-benzamide] | -3.2% | 5.6%
CCN(CC)CCOC(=O)c1ccc(Nc2ncc3nnn(-c4ccc5c(c4)CCC5)c3n2)cc1 [Compound 32, 4-(3-Indan-5-yl-3H-[1,2,3]triazolo[4,5-d]pyrimidin-5-ylamino)-benzoic acid 2-diethylamino-ethyl ester] | 30.2% | 42%
CCN(CC)CCNC(=O)c1ccc(Nc2ncc3nnn(-c4ccc(N5CCN(Cc6ccccc6)CC5)cc4)c3n2)cc1 [Compound 56, 4-{3-[4-(4-Benzyl-piperazin-1-yl)-phenyl]-3H-[1,2,3]triazolo[4,5-d]pyrimidin-5-ylamino}-N-(2-diethylamino-ethyl)-benzamide] | 75.5% | 87.3%
CN(C)CC(O)COc1ccc(Nc2ncc3nnn(C4CCC(C(=O)O)CC4)c3n2)cc1 (stereo not drawn) [Compound 30, 4-{5-[4-(3-Dimethylamino-2-hydroxy-propoxy)-phenylamino]-[1,2,3]triazolo[4,5-d]pyrimidin-3-yl}-cyclohexane-carboxylic acid] | 30% | 38.6%
CCN(CC)CCNC(=O)c1ccc(Nc2ncc3nnn(-c4ccc(C(=O)NCCN(CC)CC)cc4)c3n2)cc1 [Compound 52] | 47.9% | -19.1%
CCCCNS(=O)(=O)c1cccc(Nc2ncc3nnn(-c4cccc(S(=O)(=O)NCCCC)c4)c3n2)c1 [Compound 48] | 7.44% | -37.4%
